Broadly, the EC50 is the concentration at which the effect is half-maximal.

45 compounds from patent US20240360114A1 (SIRONAX LTD., priority 2021, published 2024) can be followed below.

The first test relates to HT-1080 cells. Put plainly: HT-1080 cell viability assay (ferroptosis induced by RSL3, Cell Titer-Glo). The class given is cell-based. Conditions: Homo sapiens, HT-1080, 20 h, ferroptosis inducer RSL3, 20 hours, ferroptosis inhibitory activity, Table 2. The method, boiled down: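 EC50 fitted by sigmoidal dose-response regression on luminescent viability data normalized to untreated cells. Compounds ran as a 10-point, 3-fold series from 1.1 μM alongside RSL3 for 20 hours, after overnight seeding.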
For orientation: ATP-based viability assays read luminescence as a measure of living cells.
As to `CC1CCC(Nc2ccc(N3CCC(C(F)(F)F)CC3)cc2)CC1` (stereo not drawn) [Compound 4A, N-(4-methylcyclohexyl)-4-(4-(trifluoromethyl)piperidin-1-yl)aniline], the 50% effective concentration (EC50) lay in the range of 0.0001 to 0.1 µM. As to `CC1(C)CCc2cc(NC3CCC(N)CC3)ccc21` (stereo not drawn) [Compound 330A, N1-(1,1-dimethyl-2,3-dihydro-1H-inden-5-yl)cyclohexane-1,4-diamine], the concentration for a half-maximal effect (EC50) was 0.0001 to 0.1 µM. The compound `CC(C)C1CCN(c2ncc(NC3CCC(CN)C3)cn2)CC1` (stereo not drawn) [Compound 48, N-(3-(aminomethyl)cyclopentyl)-2-(4-isopropylpiperidin-1-yl)pyrimidin-5-amine] showed an EC50 of 0.0001 to 0.1 µM. In turn, `COc1cc(NC[C@H]2CC[C@H](N)CC2)ccc1N1C[C@@H](C)O[C@H](C)C1` (stereo in doubt) [Compound 496, N-(((1r,4R)-4-aminocyclohexyl)methyl)-4-((2S,6R)-2,6-dimethylmorpholino)-3-methoxyaniline] returned an EC50 of 0.1 to 1 µM.

Compound `CC[C@@H]1CN(c2ccc(NC3CC4(CC(N)C4)C3)c(C)n2)C[C@H](CC)O1` (stereo partly drawn) [Compound 549] returned an EC50 of 0.0001 to 0.1 µM. `CC1(C)CCC(c2ccc(NCCN3CCCC3=O)cc2)CC1` [Compound 104, 1-(2-((4-(4,4-dimethylcyclohexyl)phenyl)amino)ethyl) pyrrolidin-2-one] yielded an EC50 of 0.1 to 1 µM. On the same count and under the same terms, with `COC(C)(C)C1CCN(c2ccc(NC3CC4(CC(N)C4)C3)c(C)n2)CC1` (stereo not drawn) [Compound 529, N2-(6-(4-(2-methoxypropan-2-yl)piperidin-1-yl)-2-methylpyridin-3-yl)spiro[3.3]-heptane-2,6-diamine] the figure was 0.0001 to 0.1 µM; with `CC1(C)CCC(c2ccc(NC3CCC(O)C3)cc2)CC1` (stereo not drawn) [Compound 151], 0.0001 to 0.1 µM. As for `CC1(C)CCC(c2ccc(NCCNC(=O)[C@H]3CNC(=O)N3)cc2)CC1` [Compound 158, (R)—N-(2-((4-(4,4-dimethylcyclohexyl)phenyl)amino)ethyl)-2-oxoimidazolidine-4-carboxamide], the 50% effective concentration (EC50) fell in the range of 0.1 to 1 µM. Same read-out and setting: with `NC1CCC(Nc2ccc(N3CCC(C(F)(F)F)CC3)c(F)c2)CC1` (stereo not drawn) [Compound 68, N1-(3-fluoro-4-(4-(trifluoromethyl)piperidin-1-yl)phenyl)cyclohexane-1,4-diamine] the figure was 0.0001 to 0.1 µM; with `CC1(C)CCC(c2ccc(NC3CCC(CNC(=O)C4CNC(=O)C4)CC3)cc2)CC1` (single isomer, unassigned) [Compound 106A], 0.0001 to 0.1 µM; with `Cc1nc(N2CC3COCC3C2)ccc1NC1CC2(CC(N)C2)C1` (stereo not drawn) [Compound 521], 0.0001 to 0.1 µM.

Take `Cc1cc(N2CCC(C(F)(F)F)CC2)ccc1NCCCC[C@H]1CC[C@H](N)CC1` [Compound 447, N-(4-((1r,4s)-4-aminocyclohexyl)butyl)-2-methyl-4-(4-(trifluoromethyl)piperidin-1-yl)aniline]: the EC50 fell in the range of 0.0001 to 0.1 µM. With `Cc1cc(N2CC(C)OC(C)C2)ccc1NC1CC2(CC(N)C2)C1` (stereo not drawn) [Compound 463, N2-(4-(2,6-dimethylmorpholino)-2-methylphenyl)spiro[3.3]heptane-2,6-diamine], the EC50 lay within 0.0001 to 0.1 µM. `CC1(C)CCC(c2ccc(NC3CCC(NC(=O)[C@H]4CNC(=O)N4)C3)cc2)CC1` (mixture of isomers) [Compound 155] returned an EC50 of 0.0001 to 0.1 µM. `CC(C)(C)Nc1ccc(C2CCNCC2)cc1` [Compound 207, N-(tert-butyl)-4-(piperidin-4-yl)aniline]: the half-maximal effective concentration (EC50) is 1 to 10 µM. On the same count and under the same terms, with `Cc1c(NC[C@H]2CC[C@H](N)CC2)ccc(N2CC(C)OC(C)C2)c1F` (stereo partly drawn) [Compound 433, N-(((1r,4r)-4-aminocyclohexyl)methyl)-4-(2,6-dimethylmorpholino)-3-fluoro-2-methylaniline] the figure was 0.0001 to 0.1 µM; with `Cc1nc(N2CC(C)(C)OC(C)(C)C2)ccc1NC[C@H]1CC[C@H](N)CC1` [Compound 514, N-(((1r,4r)-4-aminocyclohexyl)methyl)-2-methyl-6-(2,2,6,6-tetramethylmorpholino)pyridin-3-amine], 0.0001 to 0.1 µM.

`NCC1CCC(Nc2ccc(N3CCC(C(F)(F)F)CC3)nc2)CC1` (stereo not drawn) [Compound 21, N-(4-(aminomethyl)cyclohexyl)-6-(4-(trifluoromethyl)piperidin-1-yl)pyridin-3-amine] had an EC50 of 0.0001 to 0.1 µM. Same read-out and setting: with `CC[C@@H]1CN(c2ccc(NC3CC4(CC(N)C4)C3)c(C)n2)C[C@@H](CC)O1` (stereo partly drawn) [Compound 550] the figure was 0.0001 to 0.1 µM; with `CC(C)(C)c1ccc(NC2CCC(NS(N)(=O)=O)CC2)cc1` (stereo not drawn) [Compound 259A], 0.1 to 1 µM. For the compound `NC1CC(Nc2ccc(C3CCCCC3)cc2)C1` (stereo not drawn) [Compound 132, N1-(4-cyclohexylphenyl)cyclobutane-1,3-diamine], the 50% effective concentration (EC50) was in the range of 0.0001 to 0.1 µM. `Cc1cc(N2CCC(C(F)(F)F)CC2)ccc1NCC[C@H]1CC[C@H](N)CC1` [Compound 383, N-(2-((1r,4r)-4-aminocyclohexyl)ethyl)-2-methyl-4-(4-(trifluoromethyl)piperidin-1-yl)aniline]: the EC50 lay in the range of 0.0001 to 0.1 µM. On to `COCCCCOc1cc(NC2CCC(N)CC2)ccc1N1CCC(C(F)(F)F)CC1` (stereo not drawn) [Compound 39, N1-(3-(4-methoxybutoxy)-4-(4-(trifluoromethyl)piperidin-1-yl)phenyl)cyclohexane-1,4-diamine], for which the EC50 lay within 0.0001 to 0.1 µM. The compound `Cc1cc(NC2CCC(N)CC2)ccc1C(C)(C)C` (stereo not drawn) [Compound 217, N1-(4-(tert-butyl)-3-methylphenyl)cyclohexane-1,4-diamine] returned an EC50 of 0.0001 to 0.1 µM. Consider `CC(=O)NC1CCC(Nc2ccc(C3CCC(C)(C)CC3)cc2)CC1` (single isomer, unassigned) [Compound 157A, N-(4-((4-(4,4-dimethylcyclohexyl)phenyl)amino)cyclohexyl)acetamide], for which the 50% effective concentration (EC50) fell in the range of 0.0001 to 0.1 µM. On the same count and under the same terms, with `CC(C)(C)c1ccc(NC[C@H]2CC[C@H](N)CC2)cc1` [Compound 260, N-(((1r,4r)-4-aminocyclohexyl)methyl)-4-(tert-butyl)aniline] the figure was 0.0001 to 0.1 µM. The same measure, in the same setting: with `CC(C)(C)c1ccc(NC2CCC(NC(=O)C3CNCCN3)CC2)cc1` (stereo not drawn) [Compound 215, N-(4-((4-(tert-butyl)phenyl)amino)cyclohexyl) piperazine-2-carboxamide] the figure was 0.0001 to 0.1 µM; with `CC1CN(c2ccc3cc(NC4CC5(CC(N)C5)C4)ncc3c2)CC(C)O1` (stereo not drawn) [Compound 570, N2-(7-(2,6-dimethylmorpholino)isoquinolin-3-yl)spiro[3.3]heptane-2,6-diamine], 0.0001 to 0.1 µM; with `CCC(C)(C)c1ccc(NC2CCC(O)CC2)cc1` (stereo not drawn) [Compound 298, 4-((4-(tert-pentyl)phenyl)amino)cyclohexan-1-ol], 0.1 to 1 µM. On the same count and under the same terms, with `CC(C)(C)c1ccc(NC2CCC(CNc3cn[nH]c3)CC2)cc1` (stereo not drawn) [Compound 348, N-((4-((4-(tert-butyl)phenyl)amino)cyclohexyl)methyl)-1H-pyrazol-4-amine] the figure was 0.0001 to 0.1 µM. In the case of `c1cc(C2CCCCC2)ccc1NC1CNC1` [Compound 109, N-(4-cyclohexylphenyl)azetidin-3-amine], the concentration giving a half-maximal response (EC50) fell in the range of 0.1 to 1 µM. `CCN1CCC(Nc2ccc(C3CCCCC3)cc2)CC1` [Compound 72, N-(4-cyclohexylphenyl)-1-ethylpiperidin-4-amine]: the EC50 is 0.0001 to 0.1 µM. `CC(C)c1ccc(NC2CCC(N)CC2)cc1` (stereo not drawn) [Compound 127, N1-(4-isopropylphenyl)cyclohexane-1,4-diamine]: the EC50 lay in the range of 0.1 to 1 µM. On to `CC(C)C1CCN(c2ncc(NC3C4CC5CC3CC(NC(N)=O)(C5)C4)cn2)CC1` (stereo not drawn) [Compound 408, 1-(4-((2-(4-isopropylpiperidin-1-yl)pyrimidin-5-yl)amino)adamantan-1-yl)urea], for which the EC50 lay in the range of 0.0001 to 0.1 µM. In turn, `COCCCOc1cc(NC2CCC(N)CC2)ccc1C(C)(C)C` (stereo not drawn) [Compound 300A, N1-(4-(tert-butyl)-3-(3-methoxypropoxy)phenyl)cyclohexane-1,4-diamine] yielded a concentration for a half-maximal effect (EC50) of 0.0001 to 0.1 µM.

In the case of `Cc1nc(N2CC(C)OC(C)C2)ccc1NC1CC2CC1CC2N` (stereo not drawn) [Compound 504, N2-(6-(2,6-dimethylmorpholino)-2-methylpyridin-3-yl)bicyclo[2.2.1]heptane-2,5-diamine], the concentration giving a half-maximal response (EC50) is 0.0001 to 0.1 µM.

Staying with this test, now noted: Homo sapiens, HT-1080, 20 h, ferroptosis inducer RSL3, 20 hours, ferroptosis inhibitory activity, Table 3.
In turn, `Cc1nc(N(C)CCNCC(F)(F)F)ccc1NC1CC2(CC(N)C2)C1` (stereo not drawn) [Compound 616, N^5-(6-aminospiro [3.3]heptan-2-yl)-N^2,6-dimethyl-N2-(2-((2,2,2-trifluoroethyl)amino)ethyl) pyridine-2,5-diamine] returned an EC50 of 0.0001 to 0.1 µM.

In turn, `NC1CC2(C1)CC(Nc1ccc3cc(N4CCC(O)(C(F)(F)F)CC4)ccc3c1)C2` (stereo not drawn) [Compound 620, 1-(6-((6-aminospiro[3.3]heptan-2-yl)amino)naphthalen-2-yl)-4-(trifluoromethyl)piperidin-4-ol] registered an EC50 of 0.0001 to 0.1 µM. The same measure, in the same setting: with `Cc1cc(N2CC(C)(C)OC(C)(C)C2)ccc1NC1CC2(CC(N)C2)C1` (stereo not drawn) [Compound 628, N^2-(2-methyl-4-(2,2,6,6-tetramethylmorpholino)phenyl)spiro[3.3]heptane-2,6-diamine] the figure was 0.0001 to 0.1 µM; with `Cc1nc(N2CC(C)OC(C(F)(F)F)C2)ccc1NC1CC2(CC(N)C2)C1` (stereo not drawn) [Compound 588], 0.0001 to 0.1 µM. Same read-out and setting: with `Cc1nc(N2C[C@@H](C)O[C@@H](C)C2)ccc1NC1CCCC(N)CCC1` (stereo partly drawn) [Compound 631, N1-(6-((2R,6S)-2,6-dimethylmorpholino)-2-methylpyridin-3-yl)cyclooctane-1,5-diamine] the figure was 0.0001 to 0.1 µM; with `COC(C)(C)C1CCN(c2ccc(NC3CC(N)C3)c(C)n2)CC1` (stereo not drawn) [Compound 591], 0.1 to 1 µM.

The test is the same for the next values; noted with them: ferroptosis inducer RSL3, 20 hours, ferroptosis inhibitory activity, Table 2.
`CCC(C)c1ccc(NC2CCC(N)CC2)cc1` (single isomer, unassigned) [Compound 289B, 1-N-(4-(sec-butyl)phenyl)cyclohexane-1,4-diamine]: the EC50 lay within 0.1 to 1 µM. `CC1CN(c2ccc(NC3CC4(CC(N)C4)C3)cc2F)CC(C)N1CC(F)(F)F` (stereo not drawn) [Compound 535]: the EC50 is 0.0001 to 0.1 µM.
